Key:
Assay type in all cases: in vivo
Setaria viridis [1] = assay: Preemergence herbicidal activity (Example 67); design: herbicide rating, SETVI: scale not given here; conditions: pre, 800 g/ha; for herbicide rating, SETVI: rated about 1-3 weeks after treatment
Summary of the method: (§1)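 Preemergence application: the soil surface is sprayed pneumatically at 3 bar, 400 L/ha, dose 800g/ha. Formulation is acetone with 0.5% alkylphenol/ethylene oxide condensate, then water. Scoring follows a rating scale about 1-3 weeks after spraying.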

Hordeum vulgare [2] = assay: Preemergence herbicidal activity (Example 67); design: herbicide rating, HORVW: scale not given here; conditions: pre, 800 g/ha; for herbicide rating, HORVW: rated about 1-3 weeks after treatment
Summary of the method: as §1

Alopecurus myosuroides [3] = assay: Preemergence herbicidal activity (Example 67); design: herbicide rating, ALOMY: scale not given here; conditions: pre, 800 g/ha; for herbicide rating, ALOMY: rated about 1-3 weeks after treatment
Summary of the method: as §1

Veronica persica [4] = assay: Preemergence herbicidal activity (Example 67); conditions: pre, 800 g/ha; for herbicide rating, VERPE: rated about 1-3 weeks after treatment
Summary of the method: as §1

Chenopodium album [5] = assay: Preemergence herbicidal activity (Example 67); conditions: pre, 800 g/ha; for herbicide rating, CHEAL: rated about 1-3 weeks after treatment
Summary of the method: as §1

Amaranthus retroflexus [6] = assay: Preemergence herbicidal activity (Example 67); conditions: pre, 800 g/ha; for herbicide rating, AMARE: rated about 1-3 weeks after treatment
Summary of the method: as §1

Zea mays [7] = assay: Preemergence herbicidal activity (Example 67); conditions: pre, 800 g/ha; for herbicide rating, ZEAMX: rated about 1-3 weeks after treatment
Summary of the method: as §1

Abutilon theophrasti [8] = assay: Preemergence herbicidal activity (Example 67); conditions: pre, 800 g/ha; for herbicide rating, ABUTH: rated about 1-3 weeks after treatment
Summary of the method: as §1

Ipomoea hederacea [9] = assay: Preemergence herbicidal activity (Example 67); conditions: pre, 800 g/ha; for herbicide rating, IPOHE: rated about 1-3 weeks after treatment
Summary of the method: as §1

Galium aparine [10] = assay: Preemergence herbicidal activity (Example 67); conditions: pre, 800 g/ha; for herbicide rating, GALAP: rated about 1-3 weeks after treatment
Summary of the method: as §1

Helianthus annuus [11] = assay: Preemergence herbicidal activity (Example 67); conditions: pre, 800 g/ha; for herbicide rating, HELAN: rated about 1-3 weeks after treatment
Summary of the method: as §1

Setaria viridis [12] = assay: Postemergence herbicidal activity (Example 67); conditions: pos, 800 g/ha; for herbicide rating, SETVI: rated after 10-21 days
Summary of the method: (§2)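 Greenhouse plants, 3-6 weeks old, in horticultural substrate/loamy sand (1:3) received a foliar spray at 800g/ha. Herbicidal effect was scored on a rating scale 10-21 days later.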

Veronica persica [13] = assay: Postemergence herbicidal activity (Example 67); conditions: pos, 800 g/ha; for herbicide rating, VERPE: rated after 10-21 days
Summary of the method: as §2

Chenopodium album [14] = assay: Postemergence herbicidal activity (Example 67); conditions: pos, 800 g/ha; for herbicide rating, CHEAL: rated after 10-21 days
Summary of the method: as §2

Amaranthus retroflexus [15] = assay: Postemergence herbicidal activity (Example 67); conditions: pos, 800 g/ha; for herbicide rating, AMARE: rated after 10-21 days
Summary of the method: as §2

Triticum aestivum [16] = assay: Postemergence herbicidal activity (Example 67); conditions: pos, 800 g/ha; for herbicide rating, TRZAW: rated after 10-21 days
Summary of the method: as §2

Zea mays [17] = assay: Postemergence herbicidal activity (Example 67); conditions: pos, 800 g/ha; for herbicide rating, ZEAMX: rated after 10-21 days
Summary of the method: as §2

Hordeum vulgare [18] = assay: Postemergence herbicidal activity (Example 67); conditions: pos, 800 g/ha; for herbicide rating, HORVW: rated after 10-21 days
Summary of the method: as §2

Abutilon theophrasti [19] = assay: Postemergence herbicidal activity (Example 67); conditions: pos, 800 g/ha; for herbicide rating, ABUTH: rated after 10-21 days
Summary of the method: as §2

Ipomoea hederacea [20] = assay: Postemergence herbicidal activity (Example 67); conditions: pos, 800 g/ha; for herbicide rating, IPOHE: rated after 10-21 days
Summary of the method: as §2

Alopecurus myosuroides [21] = assay: Postemergence herbicidal activity (Example 67); conditions: pos, 800 g/ha; for herbicide rating, ALOMY: rated after 10-21 days
Summary of the method: as §2

Galium aparine [22] = assay: Postemergence herbicidal activity (Example 67); conditions: pos, 800 g/ha; for herbicide rating, GALAP: rated after 10-21 days
Summary of the method: as §2

Helianthus annuus [23] = assay: Postemergence herbicidal activity (Example 67); conditions: pos, 800 g/ha; for herbicide rating, HELAN: rated after 10-21 days
Summary of the method: as §2

Triticum aestivum [24] = assay: Preemergence herbicidal activity (Example 67); design: herbicide rating, TRZAW: scale not given here; conditions: pre, 800 g/ha; for herbicide rating, TRZAW: rated about 1-3 weeks after treatment
Summary of the method: as §1

COc1ccc(-c2nsc(C(=O)NCc3cccs3)n2)cc1 [Example 36]
2 (6-15%): herbicide rating, IPOHE (Ipomoea hederacea [9]) | herbicide rating, VERPE (Veronica persica [13]) | herbicide rating, AMARE (Amaranthus retroflexus [15]) | herbicide rating, GALAP (Galium aparine [22])
4 (30-44%): herbicide rating, HELAN (Helianthus annuus [23])
1 (1-5%): herbicide rating, ABUTH (Abutilon theophrasti [19])
3 (16-29%): herbicide rating, ZEAMX (Zea mays [7]) | herbicide rating, CHEAL (Chenopodium album [14]) | herbicide rating, TRZAW (Triticum aestivum [16]) | herbicide rating, IPOHE (Ipomoea hederacea [20]) | herbicide rating, ALOMY (Alopecurus myosuroides [21])
7 (80-90%): herbicide rating, SETVI (Setaria viridis [12])
0: herbicide rating, SETVI (Setaria viridis [1]) | herbicide rating, HORVW (Hordeum vulgare [2]) | herbicide rating, ALOMY (Alopecurus myosuroides [3]) | herbicide rating, VERPE (Veronica persica [4]) | herbicide rating, CHEAL (Chenopodium album [5]) | herbicide rating, AMARE (Amaranthus retroflexus [6]) | herbicide rating, ABUTH (Abutilon theophrasti [8]) | herbicide rating, GALAP (Galium aparine [10]) | herbicide rating, HELAN (Helianthus annuus [11]) | herbicide rating, ZEAMX (Zea mays [17]) | herbicide rating, HORVW (Hordeum vulgare [18]) | herbicide rating, TRZAW (Triticum aestivum [24])

C[C@H](NC(=O)c1nc(-c2cccc(Cl)n2)ns1)c1ccccc1 [Example 46, (S)-3-(6-Chloro-2-pyridyl)-[1,2,4]thiadiazole-5-carboxylic acid, 1-(phenylethyl)amide]
8 (91-99%): SET VI rating (Setaria viridis [12]) | VER PE rating (Veronica persica [13]) | ABU TH rating (Abutilon theophrasti [19]) | IPO HE rating (Ipomoea hederacea [20]) | HEL AN rating (Helianthus annuus [23])
5 (45-64%): VER PE rating (Veronica persica [4]) | AMA RE rating (Amaranthus retroflexus [6]) | TRZ AW rating (Triticum aestivum [16]) | ZEA MX rating (Zea mays [17]) | GAL AP rating (Galium aparine [22])
6 (65-79%): CHE AL rating (Chenopodium album [14]) | HOR VW rating (Hordeum vulgare [18]) | ALO MY rating (Alopecurus myosuroides [21])
4 (30-44%): CHE AL rating (Chenopodium album [5])
1 (1-5%): TRZ AW rating (Triticum aestivum [24])
0: SET VI rating (Setaria viridis [1]) | HOR VW rating (Hordeum vulgare [2]) | ALO MY rating (Alopecurus myosuroides [3]) | ZEA MX rating (Zea mays [7]) | ABU TH rating (Abutilon theophrasti [8]) | IPO HE rating (Ipomoea hederacea [9]) | GAL AP rating (Galium aparine [10]) | HEL AN rating (Helianthus annuus [11])
3 (16-29%): AMA RE rating (Amaranthus retroflexus [15])

O=C(Nc1ccc(F)cc1)c1nsc(-c2cccc(C(F)(F)F)c2)n1 [Example 63]
2 (6-15%): SET VI rating (Setaria viridis [1]) | TRZ AW rating (Triticum aestivum [24])
0: HOR VW rating (Hordeum vulgare [2]) | VER PE rating (Veronica persica [4]) | CHE AL rating (Chenopodium album [5]) | AMA RE rating (Amaranthus retroflexus [6]) | ZEA MX rating (Zea mays [7]) | ABU TH rating (Abutilon theophrasti [8]) | GAL AP rating (Galium aparine [10]) | HEL AN rating (Helianthus annuus [11]) | VER PE rating (Veronica persica [13]) | CHE AL rating (Chenopodium album [14]) | AMA RE rating (Amaranthus retroflexus [15]) | TRZ AW rating (Triticum aestivum [16]) | ZEA MX rating (Zea mays [17]) | IPO HE rating (Ipomoea hederacea [20]) | ALO MY rating (Alopecurus myosuroides [21]) | GAL AP rating (Galium aparine [22]) | HEL AN rating (Helianthus annuus [23])
1 (1-5%): HOR VW rating (Hordeum vulgare [18]) | ABU TH rating (Abutilon theophrasti [19])
3 (16-29%): IPO HE rating (Ipomoea hederacea [9]) | SET VI rating (Setaria viridis [12])
4 (30-44%): ALO MY rating (Alopecurus myosuroides [3])

COCCc1nsc(C(=O)NC(C)c2cccs2)n1 (racemic) [Example 33]
4 (30-44%): herbicide rating, IPOHE (Ipomoea hederacea [20]) | herbicide rating, HELAN (Helianthus annuus [23])
3 (16-29%): herbicide rating, HORVW (Hordeum vulgare [18]) | herbicide rating, ALOMY (Alopecurus myosuroides [21]) | herbicide rating, GALAP (Galium aparine [22])
2 (6-15%): herbicide rating, CHEAL (Chenopodium album [5]) | herbicide rating, CHEAL (Chenopodium album [14]) | herbicide rating, TRZAW (Triticum aestivum [16]) | herbicide rating, ABUTH (Abutilon theophrasti [19])
0: herbicide rating, SETVI (Setaria viridis [1]) | herbicide rating, HORVW (Hordeum vulgare [2]) | herbicide rating, ALOMY (Alopecurus myosuroides [3]) | herbicide rating, AMARE (Amaranthus retroflexus [6]) | herbicide rating, ZEAMX (Zea mays [7]) | herbicide rating, ABUTH (Abutilon theophrasti [8]) | herbicide rating, IPOHE (Ipomoea hederacea [9]) | herbicide rating, GALAP (Galium aparine [10]) | herbicide rating, HELAN (Helianthus annuus [11]) | herbicide rating, VERPE (Veronica persica [13]) | herbicide rating, AMARE (Amaranthus retroflexus [15]) | herbicide rating, ZEAMX (Zea mays [17]) | herbicide rating, TRZAW (Triticum aestivum [24])
6 (65-79%): herbicide rating, SETVI (Setaria viridis [12])
5 (45-64%): herbicide rating, VERPE (Veronica persica [4])

CCCCc1nsc(C(=O)N[C@@H](C)c2ccccc2)n1 [Example 32]
7 (80-90%): herbicide rating, SETVI (Setaria viridis [12])
5 (45-64%): herbicide rating, VERPE (Veronica persica [4]) | herbicide rating, CHEAL (Chenopodium album [5]) | herbicide rating, CHEAL (Chenopodium album [14]) | herbicide rating, ABUTH (Abutilon theophrasti [19]) | herbicide rating, IPOHE (Ipomoea hederacea [20]) | herbicide rating, HELAN (Helianthus annuus [23])
3 (16-29%): herbicide rating, AMARE (Amaranthus retroflexus [15]) | herbicide rating, TRZAW (Triticum aestivum [16])
6 (65-79%): herbicide rating, GALAP (Galium aparine [22])
0: herbicide rating, SETVI (Setaria viridis [1]) | herbicide rating, HORVW (Hordeum vulgare [2]) | herbicide rating, ALOMY (Alopecurus myosuroides [3]) | herbicide rating, AMARE (Amaranthus retroflexus [6]) | herbicide rating, ZEAMX (Zea mays [7]) | herbicide rating, ABUTH (Abutilon theophrasti [8]) | herbicide rating, IPOHE (Ipomoea hederacea [9]) | herbicide rating, GALAP (Galium aparine [10]) | herbicide rating, HELAN (Helianthus annuus [11]) | herbicide rating, VERPE (Veronica persica [13]) | herbicide rating, ZEAMX (Zea mays [17]) | herbicide rating, TRZAW (Triticum aestivum [24])
2 (6-15%): herbicide rating, HORVW (Hordeum vulgare [18]) | herbicide rating, ALOMY (Alopecurus myosuroides [21])

C[C@H](NC(=O)c1nc(-c2cccc(F)c2)ns1)c1ccccc1 [Example 45, (S)-3-(3-Fluorophenyl)-[1,2,4]thiadiazole-5-carboxylic acid, 1-(phenylethyl)amide]
0: SET VI rating (Setaria viridis [1]) | HOR VW rating (Hordeum vulgare [2]) | CHE AL rating (Chenopodium album [5]) | AMA RE rating (Amaranthus retroflexus [6]) | ZEA MX rating (Zea mays [7]) | ABU TH rating (Abutilon theophrasti [8]) | IPO HE rating (Ipomoea hederacea [9]) | GAL AP rating (Galium aparine [10]) | HEL AN rating (Helianthus annuus [11]) | TRZ AW rating (Triticum aestivum [24])
7 (80-90%): VER PE rating (Veronica persica [13])
3 (16-29%): ALO MY rating (Alopecurus myosuroides [3]) | AMA RE rating (Amaranthus retroflexus [15]) | TRZ AW rating (Triticum aestivum [16])
6 (65-79%): SET VI rating (Setaria viridis [12]) | GAL AP rating (Galium aparine [22])
4 (30-44%): CHE AL rating (Chenopodium album [14]) | ZEA MX rating (Zea mays [17]) | HOR VW rating (Hordeum vulgare [18]) | ALO MY rating (Alopecurus myosuroides [21])
8 (91-99%): VER PE rating (Veronica persica [4]) | ABU TH rating (Abutilon theophrasti [19]) | IPO HE rating (Ipomoea hederacea [20]) | HEL AN rating (Helianthus annuus [23])

From patent EP0726261A1, “Herbidical 1,2,4 thiadiazoles” (American Cyanamid Company, priority 1995, dated 1996)
